Experimental data from PMC8800111 (The Journal of Biological Chemistry, 2021).

How the values were obtained:
Assay type in all cases: cell-based
[1] = target: proteins of U3A human fibrosarcoma cells (4462 proteins detected) (Homo sapiens, UniProt Q9P2E9); conditions: protein RRBP1; soluble abundance after heat, U3A cells
[2] = target: proteins of U3A human fibrosarcoma cells (4462 proteins detected) (Homo sapiens, UniProt Q8TDN6); conditions: protein BRIX1; U3A cells
[3] = target: proteins of U3A human fibrosarcoma cells (4462 proteins detected) (Homo sapiens, UniProt Q96FF9); conditions: protein CDCA5; U3A cells
[4] = target: proteins of U3A human fibrosarcoma cells (4462 proteins detected) (Homo sapiens, UniProt Q9Y266); conditions: protein NUDC; U3A cells
[5] = target: proteins of U3A human fibrosarcoma cells (4462 proteins detected) (Homo sapiens, UniProt Q96TA2); conditions: protein YME1L1; U3A cells
[6] = target: proteins of U3A human fibrosarcoma cells (4462 proteins detected) (Homo sapiens, UniProt O60573); conditions: protein EIF4E2; soluble abundance after heat, U3A cells
[7] = target: proteins of U3A human fibrosarcoma cells (4462 proteins detected) (Homo sapiens, UniProt Q96K76); conditions: protein USP47; U3A cells
[8] = target: proteins of U3A human fibrosarcoma cells (4462 proteins detected) (Homo sapiens, UniProt Q5HYK7); conditions: protein SH3D19; U3A, 10 μM, 2 h
[9] = target: proteins of U3A human fibrosarcoma cells (4462 proteins detected) (Homo sapiens, UniProt Q96TC7); conditions: protein RMDN3; U3A cells
[10] = target: proteins of U3A human fibrosarcoma cells (4462 proteins detected) (Homo sapiens, UniProt P62701); conditions: protein RPS4X; soluble abundance after heat, U3A cells
[11] = target: proteins of U3A human fibrosarcoma cells (4462 proteins detected) (Homo sapiens, UniProt P35606); conditions: protein COPB2; soluble abundance after heat, U3A cells
[12] = target: proteins of U3A human fibrosarcoma cells (4462 proteins detected) (Homo sapiens, UniProt O00232); conditions: protein PSMD12; U3A cells
[13] = target: proteins of U3A human fibrosarcoma cells (4462 proteins detected) (Homo sapiens, UniProt Q9NY33); conditions: protein DPP3, U3A cells
[14] = target: proteins of U3A human fibrosarcoma cells (4462 proteins detected) (Homo sapiens, UniProt Q7Z4W1); conditions: protein DCXR; soluble abundance after heat, U3A cells
[15] = target: proteins of U3A human fibrosarcoma cells (4462 proteins detected) (Homo sapiens, UniProt O75147); conditions: protein OBSL1, U3A cells
[16] = target: proteins of U3A human fibrosarcoma cells (4462 proteins detected) (Homo sapiens, UniProt Q8TF74); conditions: protein WIPF2, U3A cells
[17] = target: proteins of U3A human fibrosarcoma cells (4462 proteins detected) (Homo sapiens, UniProt P04083); conditions: protein ANXA1, U3A cells
[18] = target: proteins of U3A human fibrosarcoma cells (4462 proteins detected) (Homo sapiens, UniProt Q6SPF0); conditions: protein SAMD1; soluble abundance after heat, U3A cells
[19] = target: proteins of U3A human fibrosarcoma cells (4462 proteins detected) (Homo sapiens, UniProt Q16740); conditions: protein CLPP; soluble abundance after heat, U3A cells
[20] = target: proteins of U3A human fibrosarcoma cells (4462 proteins detected) (Homo sapiens, UniProt O00629); conditions: protein KPNA4; U3A cells
[21] = target: proteins of U3A human fibrosarcoma cells (4462 proteins detected) (Homo sapiens, UniProt Q9NYV4); conditions: protein CDK12; U3A cells
[22] = target: proteins of U3A human fibrosarcoma cells (4462 proteins detected) (Homo sapiens, UniProt Q9NRL3); conditions: protein STRN4; U3A cells
[23] = target: proteins of U3A human fibrosarcoma cells (4462 proteins detected) (Homo sapiens, UniProt Q9Y6A4); conditions: protein CFAP20; soluble abundance after heat, U3A cells
[24] = target: proteins of U3A human fibrosarcoma cells (4462 proteins detected) (Homo sapiens, UniProt Q99470); conditions: protein SDF2, U3A cells
[25] = target: proteins of U3A human fibrosarcoma cells (4462 proteins detected) (Homo sapiens, UniProt P51114); conditions: protein FXR1; U3A cells
[26] = target: proteins of U3A human fibrosarcoma cells (4462 proteins detected) (Homo sapiens, UniProt Q9NZT2); conditions: protein OGFR, U3A cells
[27] = target: proteins of U3A human fibrosarcoma cells (4462 proteins detected) (Homo sapiens, UniProt P06748); conditions: protein NPM1; U3A cells
[28] = target: proteins of U3A human fibrosarcoma cells (4462 proteins detected) (Homo sapiens, UniProt Q9Y2K3); conditions: protein MYH15; U3A cells
[29] = target: proteins of U3A human fibrosarcoma cells (4462 proteins detected) (Homo sapiens, UniProt P78371); conditions: protein CCT2; U3A cells
[30] = target: proteins of U3A human fibrosarcoma cells (4462 proteins detected) (Homo sapiens, UniProt P29317); conditions: protein EPHA2; soluble abundance after heat, U3A cells
proteins of U3A human fibrosarcoma cells (4462 proteins detected) (Homo sapiens, UniProt P29317), sequence (P29317 24-976): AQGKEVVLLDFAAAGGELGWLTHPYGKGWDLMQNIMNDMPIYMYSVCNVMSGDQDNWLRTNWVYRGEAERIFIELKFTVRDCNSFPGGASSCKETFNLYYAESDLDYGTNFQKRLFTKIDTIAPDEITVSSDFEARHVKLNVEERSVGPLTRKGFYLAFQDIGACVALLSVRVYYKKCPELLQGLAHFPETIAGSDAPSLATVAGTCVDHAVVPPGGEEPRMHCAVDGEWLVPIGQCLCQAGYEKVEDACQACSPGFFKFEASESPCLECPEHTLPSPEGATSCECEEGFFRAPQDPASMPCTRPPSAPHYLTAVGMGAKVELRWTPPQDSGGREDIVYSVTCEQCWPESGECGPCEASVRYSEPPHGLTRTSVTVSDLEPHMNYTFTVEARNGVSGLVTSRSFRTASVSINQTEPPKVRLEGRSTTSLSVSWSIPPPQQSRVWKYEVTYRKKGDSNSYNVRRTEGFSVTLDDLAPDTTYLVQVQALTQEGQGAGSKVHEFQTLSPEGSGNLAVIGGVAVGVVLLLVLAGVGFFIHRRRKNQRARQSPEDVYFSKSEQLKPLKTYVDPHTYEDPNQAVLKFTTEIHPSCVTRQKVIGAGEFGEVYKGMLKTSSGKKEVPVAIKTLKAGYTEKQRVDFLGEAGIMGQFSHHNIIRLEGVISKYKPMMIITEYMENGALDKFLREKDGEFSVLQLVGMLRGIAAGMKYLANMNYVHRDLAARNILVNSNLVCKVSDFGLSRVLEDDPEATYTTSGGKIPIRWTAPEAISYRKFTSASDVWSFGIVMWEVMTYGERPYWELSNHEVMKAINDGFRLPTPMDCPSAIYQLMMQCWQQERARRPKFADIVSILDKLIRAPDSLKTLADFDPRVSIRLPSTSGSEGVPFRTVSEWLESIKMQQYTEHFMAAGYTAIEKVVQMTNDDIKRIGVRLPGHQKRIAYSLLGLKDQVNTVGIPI

proteins of U3A human fibrosarcoma cells (4462 proteins detected) (Homo sapiens, UniProt Q16740), sequence (Q16740 57-277): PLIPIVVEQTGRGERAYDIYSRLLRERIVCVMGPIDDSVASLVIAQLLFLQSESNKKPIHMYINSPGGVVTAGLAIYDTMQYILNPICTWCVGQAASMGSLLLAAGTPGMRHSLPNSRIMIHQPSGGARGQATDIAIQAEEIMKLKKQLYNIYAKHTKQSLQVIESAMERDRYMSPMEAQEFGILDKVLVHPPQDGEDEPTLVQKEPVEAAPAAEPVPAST
proteins of U3A human fibrosarcoma cells (4462 proteins detected) (Homo sapiens, UniProt Q96FF9), sequence (Q96FF9 whole entry): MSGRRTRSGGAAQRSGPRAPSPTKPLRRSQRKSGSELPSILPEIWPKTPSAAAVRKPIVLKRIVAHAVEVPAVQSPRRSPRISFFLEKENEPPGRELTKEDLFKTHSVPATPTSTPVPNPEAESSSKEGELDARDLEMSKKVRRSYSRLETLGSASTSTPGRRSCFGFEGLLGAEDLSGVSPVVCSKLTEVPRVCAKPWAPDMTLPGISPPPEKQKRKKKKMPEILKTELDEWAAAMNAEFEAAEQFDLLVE
proteins of U3A human fibrosarcoma cells (4462 proteins detected) (Homo sapiens, UniProt Q9Y266), sequence (Q9Y266 whole entry): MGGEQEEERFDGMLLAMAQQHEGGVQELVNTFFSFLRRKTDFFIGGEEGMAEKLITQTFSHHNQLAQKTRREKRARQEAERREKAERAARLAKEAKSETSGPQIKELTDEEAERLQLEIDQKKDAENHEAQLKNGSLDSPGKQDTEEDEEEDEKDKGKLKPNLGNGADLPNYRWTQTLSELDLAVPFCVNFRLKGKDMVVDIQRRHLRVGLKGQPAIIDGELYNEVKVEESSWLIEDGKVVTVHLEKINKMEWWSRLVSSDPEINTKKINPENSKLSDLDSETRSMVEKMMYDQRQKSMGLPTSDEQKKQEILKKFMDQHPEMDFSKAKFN
proteins of U3A human fibrosarcoma cells (4462 proteins detected) (Homo sapiens, UniProt Q9P2E9), sequence (Q9P2E9 whole entry): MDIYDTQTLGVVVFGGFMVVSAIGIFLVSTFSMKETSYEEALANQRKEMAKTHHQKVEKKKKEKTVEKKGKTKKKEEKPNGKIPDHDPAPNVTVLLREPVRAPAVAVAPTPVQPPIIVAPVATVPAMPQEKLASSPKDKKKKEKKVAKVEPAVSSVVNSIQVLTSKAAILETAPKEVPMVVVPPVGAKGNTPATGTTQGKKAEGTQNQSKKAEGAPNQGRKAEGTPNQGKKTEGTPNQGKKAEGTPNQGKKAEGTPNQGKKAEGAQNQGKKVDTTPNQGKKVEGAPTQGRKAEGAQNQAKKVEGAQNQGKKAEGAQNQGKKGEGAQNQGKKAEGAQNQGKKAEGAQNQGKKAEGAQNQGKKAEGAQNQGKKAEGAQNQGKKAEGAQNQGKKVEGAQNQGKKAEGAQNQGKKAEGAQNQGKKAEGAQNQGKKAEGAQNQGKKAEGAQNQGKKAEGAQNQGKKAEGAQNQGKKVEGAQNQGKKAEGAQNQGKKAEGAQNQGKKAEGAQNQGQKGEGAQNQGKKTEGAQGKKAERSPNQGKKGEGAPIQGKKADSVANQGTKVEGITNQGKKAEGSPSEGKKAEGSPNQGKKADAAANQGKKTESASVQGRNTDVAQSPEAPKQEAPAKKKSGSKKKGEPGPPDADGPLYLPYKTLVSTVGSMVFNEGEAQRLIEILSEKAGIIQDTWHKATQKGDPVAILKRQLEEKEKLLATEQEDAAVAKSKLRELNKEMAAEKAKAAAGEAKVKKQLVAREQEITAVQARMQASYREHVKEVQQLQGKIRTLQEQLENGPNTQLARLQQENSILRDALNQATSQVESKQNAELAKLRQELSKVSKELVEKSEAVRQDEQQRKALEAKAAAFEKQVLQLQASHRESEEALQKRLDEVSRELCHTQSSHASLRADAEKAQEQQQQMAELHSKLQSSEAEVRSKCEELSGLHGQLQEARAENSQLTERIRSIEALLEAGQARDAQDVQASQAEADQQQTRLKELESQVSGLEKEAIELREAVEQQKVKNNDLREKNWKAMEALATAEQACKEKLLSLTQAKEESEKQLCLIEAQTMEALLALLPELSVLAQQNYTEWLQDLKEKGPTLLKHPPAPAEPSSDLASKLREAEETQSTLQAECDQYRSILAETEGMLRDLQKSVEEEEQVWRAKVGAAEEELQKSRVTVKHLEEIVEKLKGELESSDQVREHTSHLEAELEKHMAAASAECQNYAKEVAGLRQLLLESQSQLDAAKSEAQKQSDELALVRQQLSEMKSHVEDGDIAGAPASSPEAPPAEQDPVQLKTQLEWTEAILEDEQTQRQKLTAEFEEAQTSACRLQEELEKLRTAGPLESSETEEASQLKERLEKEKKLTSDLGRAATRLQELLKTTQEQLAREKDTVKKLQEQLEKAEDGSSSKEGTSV
proteins of U3A human fibrosarcoma cells (4462 proteins detected) (Homo sapiens, UniProt Q9Y6A4), sequence (Q9Y6A4 whole entry): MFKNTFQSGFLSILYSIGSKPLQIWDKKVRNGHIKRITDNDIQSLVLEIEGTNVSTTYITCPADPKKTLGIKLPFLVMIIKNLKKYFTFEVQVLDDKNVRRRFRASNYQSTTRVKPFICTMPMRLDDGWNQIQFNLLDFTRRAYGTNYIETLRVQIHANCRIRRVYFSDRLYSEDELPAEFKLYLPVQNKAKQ
proteins of U3A human fibrosarcoma cells (4462 proteins detected) (Homo sapiens, UniProt Q5HYK7), sequence (Q5HYK7 whole entry): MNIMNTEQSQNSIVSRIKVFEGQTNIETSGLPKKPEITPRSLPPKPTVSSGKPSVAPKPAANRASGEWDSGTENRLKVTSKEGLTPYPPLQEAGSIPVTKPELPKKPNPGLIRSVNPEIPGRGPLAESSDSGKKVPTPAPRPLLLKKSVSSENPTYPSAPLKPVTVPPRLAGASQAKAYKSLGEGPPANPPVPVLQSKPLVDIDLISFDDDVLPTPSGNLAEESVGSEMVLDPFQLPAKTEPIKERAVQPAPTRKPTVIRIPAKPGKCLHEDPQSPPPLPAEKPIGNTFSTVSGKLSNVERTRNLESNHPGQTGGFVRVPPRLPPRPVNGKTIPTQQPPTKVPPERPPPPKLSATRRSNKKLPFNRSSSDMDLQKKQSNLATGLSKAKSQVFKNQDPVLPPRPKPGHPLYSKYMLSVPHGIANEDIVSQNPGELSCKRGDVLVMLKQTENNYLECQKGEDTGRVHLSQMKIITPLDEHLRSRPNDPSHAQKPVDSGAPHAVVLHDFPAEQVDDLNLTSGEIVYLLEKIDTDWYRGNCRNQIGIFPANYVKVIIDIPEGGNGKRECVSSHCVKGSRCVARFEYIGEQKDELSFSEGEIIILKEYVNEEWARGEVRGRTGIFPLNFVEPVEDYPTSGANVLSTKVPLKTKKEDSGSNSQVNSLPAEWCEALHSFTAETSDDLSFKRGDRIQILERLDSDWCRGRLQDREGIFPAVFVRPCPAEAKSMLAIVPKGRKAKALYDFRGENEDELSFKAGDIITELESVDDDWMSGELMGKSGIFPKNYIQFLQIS
proteins of U3A human fibrosarcoma cells (4462 proteins detected) (Homo sapiens, UniProt O00232), sequence (O00232 whole entry): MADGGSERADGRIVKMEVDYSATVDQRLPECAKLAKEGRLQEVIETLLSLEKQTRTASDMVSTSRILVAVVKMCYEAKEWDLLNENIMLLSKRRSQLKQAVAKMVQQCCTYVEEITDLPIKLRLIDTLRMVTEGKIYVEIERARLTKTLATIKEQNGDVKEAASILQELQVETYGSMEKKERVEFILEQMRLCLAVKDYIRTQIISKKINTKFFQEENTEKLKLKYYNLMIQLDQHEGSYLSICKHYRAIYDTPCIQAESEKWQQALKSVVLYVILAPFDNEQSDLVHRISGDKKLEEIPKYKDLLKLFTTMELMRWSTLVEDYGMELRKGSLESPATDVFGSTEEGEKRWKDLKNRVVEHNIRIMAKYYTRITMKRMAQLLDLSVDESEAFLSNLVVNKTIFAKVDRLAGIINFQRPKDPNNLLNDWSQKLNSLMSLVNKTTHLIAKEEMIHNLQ
proteins of U3A human fibrosarcoma cells (4462 proteins detected) (Homo sapiens, UniProt Q99470), sequence (Q99470 19-211): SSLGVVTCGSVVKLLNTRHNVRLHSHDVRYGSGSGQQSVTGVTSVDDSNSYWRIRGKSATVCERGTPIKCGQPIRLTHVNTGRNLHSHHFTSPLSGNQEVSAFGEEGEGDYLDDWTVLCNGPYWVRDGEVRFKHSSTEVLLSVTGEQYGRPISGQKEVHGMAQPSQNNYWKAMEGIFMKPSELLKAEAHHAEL

## CCc1nc(N)nc(N)c1-c1ccc(Cl)cc1 [pyrimethamine]
[1]
  Log2 (PYR/DMSO): 0.15
[2]
  Log2 (PYR/DMSO): 0.20
[3]
  Log2 (PYR/DMSO): 0.19
[4]
  Log2 (PYR/DMSO): 0.16
[5]
  Log2 (PYR/DMSO): 0.16
[6]
  Log2 (PYR/DMSO): 0.15
[7]
  Log2 (PYR/DMSO): 0.19
[8]
  Log2 (PYR/DMSO), SH3D19: -0.14
[9]
  Log2 (PYR/DMSO): 0.15
[10]
  Log2 (PYR/DMSO): 0.14
[11]
  Log2 (PYR/DMSO): 0.15
[12]
  Log2 (PYR/DMSO): 0.18
[13]
  Log2 (PYR/DMSO): -0.04
[14]
  Log2 (PYR/DMSO): 0.14
[15]
  Log2 (PYR/DMSO): -0.04
[16]
  Log2 (PYR/DMSO): -0.05
[17]
  Log2 (PYR/DMSO): -0.05
[18]
  Log2 (PYR/DMSO): 0.15
[19]
  Log2 (PYR/DMSO): 0.14
[20]
  Log2 (PYR/DMSO): 0.22
[21]
  Log2 (PYR/DMSO): 0.20
[22]
  Log2 (PYR/DMSO): 0.16
[23]
  Log2 (PYR/DMSO): 0.14
[24]
  Log2 (PYR/DMSO): -0.04
[25]
  Log2 (PYR/DMSO): 0.17
[26]
  Log2 (PYR/DMSO): -0.04
[27]
  Log2 (PYR/DMSO): 0.17
[28]
  Log2 (PYR/DMSO): 0.17
[29]
  Log2 (PYR/DMSO): 0.17
[30]
  Log2 (PYR/DMSO): 0.15
